Data taken from patent US7838023B2, “Furoxan compounds, compositions and methods of use” (NitroMed, Inc., priority 2005, dated 2010).
pIC50: −log10 of the molar value. Where a name gives a salt, the structure may show the parent alone. Read-outs that look alike come from different tables or passages of the source. One block for each compound: values may come before it.

Experiments:
[1] = test system: Human coronary artery endothelial cells (EC); assay: Endothelial cell (EC) antiproliferation assay; assay type: cell-based; conditions: inhibition of proliferation, viable cell count ~68 hours after addition
Method: (§1) Human coronary artery smooth muscle cells (SMC) and endothelial cells (EC) were supplied by Cambrex Bio Science Walkersville, Inc. (Walkersville, MD). The smooth muscle cells were maintained in a basal medium, EBM (Cambrex Bio Science Walkersville, Inc), without phenol red and supplemented with 5% (v/v) fetal bovine serum (FBS), human recombinant epidermal growth factor (EGF), human recombinant fibroblast growth factor (FGF), bovine insulin, 50 μg/mL gentamicin sulfate, and 50 ng/mL amphotericin B (all obtained from Cambrex Bio Science Walkersville, Inc. as SMGM2 SingleQuots). The endothelial cells were grown in a modified EGM2-MV medium (Cambrex Bio Science Walkersville, Inc.), which had the same, phenol red-free, basal medium, EBM, as used in the smooth muscle cell medium, but were supplemented with 5% (v/v) fetal bovine serum (FBS), human recombinant epidermal growth factor (EGF), human recombinant fibroblast growth factor (FGF), vascular endothelial growth factor (VEGF), recombinant insulin-like growth factor-1 (IGF-1), ascorbic acid, 50 μg/mL gentamicin sulfate, and 50 ng/mL amphotericin B (all supplied by Cambrex Bio Science Walkersville, Inc. as EGM2-MV SingleQuots). All cells were incubated under humidified 95% air-5% CO2 at 37° C.
(§2) For the SMC/EC Antiproliferation Assay, the cells were seeded at 4×10^4 viable cells in 2 mL of the appropriate medium per well of a Corning tissue culture 24 well plate (Corning, N.Y.). Stock solutions of the test compounds were prepared just prior to addition to the cells by dissolving in DMSO at a concentration 1000 times the highest concentration to be assayed. This stock solution was diluted, as required, with DMSO to the required concentration. On the same day the cells were seeded, but after they had attached and spread out (about 3 hr), each test compound in varying concentrations (2 μL of the diluted stock solutions) was added to four replicate wells (n=4) for each concentration. Control cultures received 2 μL of DMSO per well (n=4). On the following morning, the cultures were examined microscopically and their condition, including evidence of cytotoxicity, recorded. ˜68 hours after the addition of the test compound, the cultures were examined microscopically and the viable cells counted with a hemacytometer following trypsinization with 0.25% trypsin-1 mM EDTA. Trypan Blue dye exclusion was used to discriminate between viable and dead cells. The results are presented as % of the control viable cell count (mean±SEM) and are used to determine the IC50 for the inhibition of proliferation of vascular smooth muscle and endothelial cells.

[2] = test system: Human coronary artery smooth muscle cells (SMC); assay: Vascular smooth muscle cell (SMC) antiproliferation assay; assay type: cell-based; conditions: inhibition of proliferation, viable cell count ~68 hours after addition
Method: as §1, §2

[3] = Homo sapiens, Endothelial cell, EC strain 3033, read-out: EC Strain 3033, IC50
[4] = Homo sapiens, SMC strain 3033, read-out: SMC Strain 3033, IC50

SMILES: O=S(=O)(c1ccccc1)c1c(OCCN(CCOc2no[n+]([O-])c2S(=O)(=O)c2ccccc2)CCOc2no[n+]([O-])c2S(=O)(=O)c2ccccc2)no[n+]1[O-] [Example 1d, Ethanamine, 2-[[5-oxido-4-(phenylsulfonyl)-1,2,5-oxadiazol-3-yl]oxy]-N,N-bis[2-[[5-oxido-4-(phenylsulfonyl)-1,2,5-oxadiazol-3-yl]oxy]ethyl]-, 2-hydroxy-1,2,3-propanetricarboxylate]
pIC50 [1, 3]: 6.35 | pIC50 ([1]; Homo sapiens, Endothelial cell, EC strain 5675-1, read-out: EC Strain 5675-1, IC50): 6.34 | pIC50 [2, 4]: 8.22 | pIC50 ([2]; Homo sapiens, SMC strain 5286, read-out: SMC Strain 5286, IC50): 7.77 | pIC50 ([2]; Homo sapiens, SMC strain 9557-1, read-out: SMC Strain 9557-1, IC50): 8.10

SMILES: O=S(=O)(c1ccccc1)c1c(OCCNCCOc2no[n+]([O-])c2S(=O)(=O)c2ccccc2)no[n+]1[O-] [Example 2b, Ethanamine, 2-[[5-oxido-4-(phenylsulfonyl)-1,2,5-oxadiazol-3-yl]oxy]-N-[2-[[5-oxido-4-(phenylsulfonyl)-1,2,5-oxadiazol-3-yl]oxy]ethyl]-, 2-hydroxy-1,2,3-propanetricarboxylate (1:1) (salt)]
pIC50 [1, 3]: 6.16 | pIC50 [2, 4]: 7.15

SMILES: O=S(=O)(c1ccccc1)c1c(OCC(COc2no[n+]([O-])c2S(=O)(=O)c2ccccc2)Oc2no[n+]([O-])c2S(=O)(=O)c2ccccc2)no[n+]1[O-] [Example 4]
pIC50 ([1]; EC strain 3033, read-out: EC Strain 3033, IC50): 6.46 | pIC50 ([2]; SMC strain 5286, read-out: SMC Strain 5286, IC50): 7.89 | pIC50 ([2]; SMC strain 9557-1, read-out: SMC Strain 9557-1, IC50): 8.05

melting point: 187 to 189 °C
SMILES: O=S(=O)(c1ccccc1)c1c(OCCOc2no[n+]([O-])c2S(=O)(=O)c2ccccc2)no[n+]1[O-] [Example 5]
